Reference: article PMC3190057 (Food and chemical toxicology : an international journal …, 2011)
Several values for one entry are separate records, joined by “and”; a condition that tells them apart may be missing. Equal values may be shown once.

Experiments:
P-gp [1] = test: In vitro induction of P-gp expression, Western blotting; assay type: cell-based, human; settings: LS-180 cells, 25 μM, 48 h, Western blot densitometry, P-gp/β-actin
P-gp [2] = test: Immunofluorescence staining and imaging of membrane P-gp; assay type: cell-based, human; settings: LS-180 cells, 25 μM, 48 h, mean ± SD (n=4)
P-gp [3] = test: in vitro; settings: human
P-gp [4] = test: P-gp functional activity, rhodamine 123 uptake with or without 100 μM verapamil; settings: LS-180 cells; for increase in P-gp activity: 48 h; for Emax (fold ↑ in P-gp activity): Hill equation fit
[5] = human subjects, oral administration, cited from earlier work
LS-180 cells = test: Toxicity to LS-180 cells during the induction treatment; assay type: cell-based, human

Row | EC50 at 48 h (P-gp [3]) [µM] | SMILES | fold increase in the expression of P-gp protein compared to control (P-gp [1]) | fold-increase in membrane P-gp expression compared to the control (P-gp [2]) [fold] | increase in P-gp activity (P-gp [4]; 25 μM) [%] | Emax (fold ↑ in P-gp activity) (P-gp [4]) [fold] | decrease in digoxin area under the plasma curve (AUC) ([5]; ref Greiner et al., 1999) [%] | decrease in risperidone area under the plasma curve (AUC) ([5]; ref Kim et al., 2008) [%] | increase in P-gp activity (P-gp [4]; 5 μM) [%] | concentration toxic to the cells (LS-180 cells) [µM] | EC50 at 48 h (P-gp [3]; LS-180 cells, probe rhodamine 123 (1 μg/mL), with verapamil 100 μM) [µM] | increase in P-gp activity (P-gp [4]; 10 μM) [%]
1 | 11.3 | C[C@H]1[C@H](C)CC[C@]2(C(=O)O)CC[C@]3(C)C(=CC[C@@H]4[C@@]5(C)C[C@@H](O)[C@H](O)[C@@](C)(CO)[C@@H]5CC[C@]43C)[C@H]12 [asiatic acid, Asiatic acid] | 2.3-3.0 fold and 2.6 fold | 2.5 ± 0.95 | > 45 | 1.5 | – | – | – | – | – | –
2 | 14 | C/C=C(/C=O)[C@@H](CC=O)CC(=O)OCCc1ccc(O)cc1 [oleocanthal, (-)-Oleocanthal] | 2.3-3.0 fold and 2.3 fold | 9.3 ± 0.37 | – | 4.5 | – | – | – | – | – | –
3 | – | CC(C)=CCC/C(C)=C/CC/C(C)=C/CC[C@]1(C)CCc2cc(O)c(C)c(C)c2O1 [γ-tocotrienol, γ-Tocotrienol] | 2.3-3.0 fold and 2.5 fold | 4.6 ± 0.39 | – | 1.7 | – | – | – | > 25 | 5.9 | > 45

Row | SMILES | EC50 at 48 h (P-gp [3]) [µM] | fold increase in the expression of P-gp protein compared to control (P-gp [1]) | fold-increase in membrane P-gp expression compared to the control (P-gp [2]) [fold] | increase in P-gp activity (P-gp [4]; 25 μM) [%] | Emax (fold ↑ in P-gp activity) (P-gp [4]) [fold] | decrease in digoxin area under the plasma curve (AUC) ([5]; ref Greiner et al., 1999) [%] | decrease in risperidone area under the plasma curve (AUC) ([5]; ref Kim et al., 2008) [%] | increase in P-gp activity (P-gp [4]; 5 μM) [%] | concentration toxic to the cells (LS-180 cells) [µM] | EC50 at 48 h (P-gp [3]; LS-180 cells, probe rhodamine 123 (1 μg/mL), with verapamil 100 μM) [µM] | increase in P-gp activity (P-gp [4]; 10 μM) [%]
4 | CO[C@H]1/C=C/O[C@@]2(C)Oc3c(C)c(O)c4c(O)c(c(/C=N/N5CCN(C)CC5)c(O)c4c3C2=O)NC(=O)/C(C)=C\C=C\[C@H](C)[C@H](O)[C@@H](C)[C@@H](O)[C@@H](C)[C@H](OC(C)=O)[C@@H]1C [rifampicin, Rifampicin, reference compound] | 26.8 | 5 fold | – | 230 | 4.4 | 30 | 51 | 180 | – | – | –
